Experimental data reported in patent publication US10369133B2, “Immunosuppressive compounds and therapeutics” (UNIVERSITY OF TENNESSEE RESEARCH FOUNDATION, priority 2013, dated 2019).

Key:
[1] = test system: human PBMCs in NSG mice; assay: Immunosuppressive effect in humanized NSG mice; type: in vivo, mouse; conditions: for amount of human CD3+ T cells in the mouse spleen / serum human IgG level: 50 mg/kg intraperitoneally, consecutive 7 shots, compared with saline
Procedure: Human PBMCs (5×10^6/mouse) were injected intraperitoneally into NSG mice to introduce human immunity. Sections were stained to indicate human CD3+ T cells (red) and counterstained with DAPI (blue). […] Results are presented as the mean±S.D., n=5.
Human PBMCs were isolated from buffy coats by gradient centrifugation using Ficoll Paque. The T cells and B cells of PBMCs were stained with FITC conjugated CD3 antibody and APC conjugated CD19 antibody, respectively, and characterized using flow cytometry. The PBMCs were infused into diabetic NSG mice at the concentration of 5×10^6/mouse to establish human immunity. The settlement of T cells in the spleen was assessed by immunofluorescence staining. Briefly, spleen were isolated, washed with PBS, fixed in 4% paraformaldehyde overnight, and embedded in optimal cutting temperature compound. Frozen sections of 5 μm thickness were cut. The slides were stained with rabbit anti-human CD3 primary antibody (1:200) at 4° C. overnight and Alexa Fluor 568 conjugated goat anti-rabbit secondary antibody (1:500) at room temperature for 1 h. The function of B cells was assessed by measuring human IgG concentration in the mouse blood.
To test the immunosuppressive effect of JP-3-110 in vivo, a humanized mouse model was used. Briefly, human PBMCs (5×10^6/mouse) were adoptively transferred into immunodeficient NSG mice to build human immunity. The human IgG level in the serum and human CD3+ T cell staining in the spleen was used to confirm the existence of human immunity (FIG. 8B). JP-3-110 and MPA was administrated intraperitoneally at 50 mg/kg for consecutive 7 shots.

[2] = test system: INS-1E cells; assay: Caspase 3 activity in INS-1E cells (Caspase-Glo 3); type: cell-based; conditions: 20 μM (each), 2 days
Procedure: (§1) Results are presented as the mean±S.D., n=3. […] Apoptotic cells were stained in dark (arrows). […] Islet was collected and dispersed with 0.25% Trypsin/EDTA into single cell suspension. P3 indicated the percentage of apoptotic cells. All experiments were performed in triplicates. Results are presented as the mean±SD. *p<0.05 as determined by an unpaired Student's t-test, n=6.
A cytokine cocktail (5 ng/ml TNFα and 5 ng/ml IL-1β) was used to mimic the in vivo challenge to the INS-1E cells and human islets by the inflammatory cytokines. Caspase-Glo 3 assay kits were used to analyze caspase 3 as per the manufacturer's protocol (Promega, Madison, Wis.). This assay kit provides a proilluminescent caspase substrate, DEVD, that, when cleaved by caspases, will release luciferin to quantitatively determine caspase concentration. […] The contents were then transferred into culture tubes, and luminescence was determined using a luminometer (Berthold, Germany).
We then determined the conjugation with TNP can reduce the pro-apoptotic effect of MPA. […] We first measured the caspase 3 activities of insulin-producing INS-1E cells under the stimulation of MPA alone, or MPA with free TNP, or JP-3-110 (MPA conjugated with TNP). […]

[3] = test system: INS-1E cells; assay: TUNEL assay of INS-1E cells; type: cell-based; conditions: 20 μM
Procedure: as §1
The apoptosis of INS-1E cells was analyzed using terminal deoxynucleotidyl transferase dUTP nick end labeling (TUNEL). Briefly, following JP-3-110 treatment for 48 h and cytokine cocktail treatment for additional 48 h, INS-1E cells were characterized by the DeadEnd™ Colorimetric TUNEL system (Promega, Madison, Wis., USA), in which fragmented DNA from apoptotic cells was labeled with biotinylated nucleotide and detected using hydrogen peroxide and diaminobenzidine. For human islets, following treatment with JP-3-110 and cytokines, human islets were digested with 0.25% trypsin/EDTA into a single-cell suspension, stained with the Annexin V-FITC Apoptosis Detection Kit (Abcam, Cambridge, Mass.) and analyzed with flow cytometry. Annexin V binds to phosphatidylserine on the cell surface, which is a feature found in apoptotic cells. Fluorescent intensity was analyzed using CellQuest software (BD Bioscience, Franklin Lakes, N.J.). […]
We then determined the conjugation with TNP can reduce the pro-apoptotic effect of MPA. […]

[4] = test system: human islets; assay: Dynamic insulin release (perifusion) assay of human islets; type: cell-based; conditions: co-incubation with drug; for insulin release pattern under stimulatory glucose: basal then stimulatory glucose
Procedure: Briefly, 50 islets from each group were perifused with basal glucose for 60 min and stimulatory glucose for 30 min and finally with basal glucose until insulin release reversed to the basal level. Samples were collected through an automatic fraction collector and analyzed for insulin content by ELISA.
The insulin secretion from human islets was quantified using a dynamic islet perifusion assay as described before. See Wu et al., 2011, The Journal of Gene Medicine, 13:658-669. Briefly, 50 islets from each group were handpicked and loaded onto a Swinnex 13 chamber (Millipore, Burlington, Mass., USA) and perifused with Krebs-Ringer bicarbonate HEPES buffer of the following composition (in mM): 129 NaCl, 5 NaHCO3, 4.8 KCl, 1.2 KH2PO4, 1.2 MgSO4, 2.5 CaCl2, and 10 HEPES at pH 7.4. The flow rate was maintained at 1 ml/min with a peristaltic pump (Themo Fisher, Waltham, Mass.) and the temperature was maintained at 37° C. with a solution heater (Warner Instruments, Hamden, Conn.). Islets were first perifused with basal glucose for 60 min, stimulatory glucose for 20 min and basal glucose until insulin release reversed to the basal level. The perifusion speed was set to 2 mL/minute and samples were collected once per minute through an automatic fraction collector (Waters, Milford, Mass.) and analyzed for insulin content by ELISA.
A dynamic insulin release assay was used to evaluate the function of human islets. Briefly, […] handpicked human islets were sequentially perfused with basal and stimulatory glucose. The samples were collected using an auto-sampler and subjected to ELISA.

[5] = test system: human CD3+ T cells; assay: Mixed lymphocyte reaction: proliferation of PHA-stimulated T cells; type: cell-based; conditions: PHA 1 μg/mL; 5 μM; in 4 days
Procedure: Briefly, human peripheral blood mononuclear cells PBMCs were isolated from human buffy coat using Ficoll-Paque. […] Results are presented as the mean±S.D., n=6.
PBMCs were isolated using Ficoll Paque. T cells were isolated from PBMCs using Dynabeads for. T cells were stimulated with PHA (1 μg/ml) for 24 h alone or in the presence of TNP (5 μM) or JP-3-110 (5 μM) for additional 4 days. The total number of PBMCs was measured using T4 Automatic Cell Counter (Nexcelom, Lawrence, Mass.). The extent of T cell activation was determined by measuring the level of IL-2, IL-2sRa, TNFα and IFN-γ in the medium using ELISA at indicated time.
Mixed lymphocytes reaction was used to determine the immunosuppressive effects of MPA and JP-3-110. T cells were purified using dynabeads from peripheral blood mononuclear cells (PBMCs), which were initially isolated from human buffy coat (FIG. 8A). […] The levels of IL-2, IL-2sRa, TNFα and IFNγ were detected by ELISA to study the effects of JP-3-110 and MPA on T cell activation.

| SMILES | amount of human CD3+ T cells in the mouse spleen [1] | serum human IgG level [1] | caspase 3 activity [2] | apoptotic cell death (TUNEL) [3] | insulin release pattern under stimulatory glucose [4] | proliferation of T cells [5] | immunosuppressive effect, MPA compared with JP-3-110 ([1]; humanized NSG mice, 50 mg/kg each) | total insulin release to stimulatory glucose [4] |
| --- | --- | --- | --- | --- | --- | --- | --- | --- |
| CCCCNC(=O)[C@]1(O)C[C@@H](O)[C@@H](O)[C@H](OC(=O)CC/C(C)=C/Cc2c(OC)c(C)c3c(c2OC(C)=O)C(=O)OC3)C1 [JP-3-110, (1R,2R,3R,5S)-5-(butylcarbamoyl)-2,3,5-trihydroxycyclohexyl (E)-6-(4-acetoxy-6-methoxy-7-methyl-3-oxo-1,3-dihydroisobenzofuran-5-yl)-4-methylhex-4-enoate] | significantly reduced | significantly reduced | effectively reversed the elevation of caspase 3 activity | effectively reversed | clear biphasic insulin release | equally potent as MPA | – | – |
| COc1c(C)c2c(c(O)c1C/C=C(\C)CCC(=O)O)C(=O)OC2 [MPA, mycophenolic acid, reference compound] | significantly reduced | significantly reduced | elevation of caspase 3 activity | apoptotic cell death | impaired the insulin release from both phases | suppress the proliferation of T cells | slightly better immunosuppressive effect than JP-3-110 | significantly reduction |
